Key:
H1 hESCs = test: Growth-factor-free differentiation of hPSCs to SOX17+ DE cells, SOX17 expression by flow cytometry; type: cell-based, human; conditions: for effect on DE differentiation (result in words): H1 hESCs differentiated with CH, CH+DM or CH+A83-01, day 4 SOX17 by flow cytometry (FIG. 1F); for percentage of cells expressing SOX17: flow cytometry (FIG. 1C); for SOX17+ cells: H1 hESCs, dynamics (FIG. 1E; CH in presence or absence of DM)
Description: (§1) FIG. 1. Growth-factor-free differentiation of SOX17+ DE cells from hPSCs via CH and DM treatment. (A) Human 19-9-11 iPSCs were treated with 6 μM CH at day 0. After treatment, cells were collected from 3 to 21 hours (T) and RNA-seq was performed. The bars for each set from left to right are: T0, T3, T6, T9, T12, T15, T18, T21. (B) Schematic of protocol for defined, growth-factor-free differentiation of hPSCs to SOX17+ cells via treatment with CH and DM. (C-D) H1 hESCs were cultured as indicated in 2B with 1 μM DM plus different CH concentration, ranging from 2 to 10 μM. (C) On day 4 of differentiation, cells were analyzed for SOX17 expression by flow cytometry. (D) Cells were immunostained with a SOX17 antibody on day 4 of differentiation under 6 μM CH plus 1 μM DM treatment. (E) H1 hESCs were differentiated with CH in the presence or absence of DM. From day 1 to day 4, cells were analyzed for SOX17 expression by flow cytometry. (F) H1 hESCs were differentiated with CH, CH plus DM or CH plus A83-01. On day 4 of differentiation, cells were analyzed for SOX17 expression by flow cytometry.
Stage 1: On day 0, medium was changed with RPMI supplemented with 1 μM Dorsomorphin (DM) and 2-10 μM CHIR99021(CH). At day 1-4, medium was changed with RPMI supplemented with B-27 without insulin.
Cells were dissociated into single cells with Accutase for 10 min and then fixed with 1% paraformaldehyde for 30 min at room temperature and stained with primary and secondary antibodies in PBS plus 0.1% Triton X-100 and 0.5% BSA. Data were collected on a BD ACCURI C6 PLUS flow cytometer (BD Biosciences) and analyzed using FlowJo 10. FACS gating was based on the corresponding isotype antibody control.
Here we describe a differentiation protocol without using any growth factors. We first initiated DE differentiation by treating hPSCs with CH+DM. To determine optimal CH concentration for DE differentiation, H1 cells were treated by 2 to 10 μM CH in RPMI for 24 hours, followed by 3 days culture in RPMI with 2% B-27 minus insulin supplement. We analyzed the percentage of SOX17+ cells on day 4 of differentiation via flow cytometry. […] The optimal DE differentiation was achieved when hPSCs were treated by 4 or 6 μM CH (FIG. 1C). On day 4, 85% of cells expressing SOX17 when cells were treated with 6 μM CH plus 1 μM DM, whereas the percentage of cells expressing SOX17 decreased to 20% when treated with 10 μM CH plus 1 μM DM (FIG. 1C). […] Next, the dynamics of DE differentiation was investigated by analyzing SOX17 expression from day 1 to day 4. During differentiation, SOX17+ cells increased from 0% on day 1 to 78% on day 4, indicating DE was gradually developed (FIG. 1E). Furthermore, to evaluate whether our novel DE differentiation protocol depends on endogenous TGFbeta pathway, we differentiated H1 hESCs with CH, CH+DM, and CH+A83-01 (a TGFbeta inhibitor).

19-9-11 iPSCs = test: RNA-seq expression profile during CH induced differentiation; type: cell-based, human; conditions: 6 μM CH
Description: as §1
To understand RNA expression profile during CH induced differentiation, we collected cells following CH treatment every three hours for a total of eight different time points after differentiation (FIG. 1A).

Compound	effect on DE differentiation (result in words) (H1 hESCs)	Sox17+ cells generated (H1 hESCs; 10 μM CH treatment (discussion)) [%]	Sox17+ cells generated (H1 hESCs; 4 or 6 μM CH treatment (discussion))	DE differentiation (result in words) (H1 hESCs; H1 cells, 2 to 10 μM CH in RPMI for 24 hours, SOX17+ cells on day 4)	percentage of cells expressing SOX17 (H1 hESCs; H1 cells, day 4, 6 μM CH plus 1 μM DM) [%]	percentage of cells expressing SOX17 (H1 hESCs; H1 cells, day 4, 10 μM CH plus 1 μM DM) [%]	SOX17+ cells (H1 hESCs; day 1 of differentiation) [%]	SOX17+ cells (H1 hESCs; day 4 of differentiation) [%]	Nodal expression (19-9-11 iPSCs; 21 hours after treatment, RNA-seq)	RNA expression of several components in the TGF-β signaling pathway (19-9-11 iPSCs; samples every three hours over 21 hours, RNA-seq (FIG. 1A))
Cc1cccc(-c2nn(C(=S)Nc3ccccc3)cc2-c2ccnc3ccccc23)n1 [A83-01]	abolished DE differentiation									
Cc1cnc(-c2cnc(NCCNc3ccc(C#N)cn3)nc2-c2ccc(Cl)cc2Cl)[nH]1 [CH, 6-[[2-[[4-(2,4-Dichlorophenyl)-5-(5-methyl-1H-imidazol-2-yl)-2-pyrimidinyl]amino]ethyl]amino]-3-pyridinecarbonitrile]		6	more than 74%	induced DE differentiation in a dose-dependent manner	85	20	0	78	upregulated	increased
c1cc(-c2cnn3cc(-c4ccc(OCCN5CCCCC5)cc4)cnc23)ccn1 [DM, 6-[4-(2-Piperidin-1-ylethoxy)phenyl]-3-pyridin-4-ylpyrazolo[1,5-a]pyrimidine]	promoted this differentiation									
